± gives the uncertainty stated by the source.
Experiment: xn = mol fraction of the nth substance listed

C=CC#N + CC(=O)c1ccccc1
308.15 K, 101 kPa
Details | viscosity [mPa·s]
x2 = 0.0582 | 0.3608 ± 0.004
x2 = 0.1109 | 0.3946 ± 0.0042
x2 = 0.1957 | 0.4532 ± 0.0047
x2 = 0.2736 | 0.5132 ± 0.0053
x2 = 0.3939 | 0.62 ± 0.0062
x2 = 0.4591 | 0.676 ± 0.0067
x2 = 0.5681 | 0.7844 ± 0.0076
x2 = 0.6945 | 0.9222 ± 0.0087
x2 = 0.7954 | 1.052 ± 0.0099

CN(C)c1ccccc1 + CC(=O)c1ccccc1
viscosity [mPa·s], 101 kPa
Details | 303.15 K | 308.15 K
x1 = 0.0856 | 1.505 ± 0.054 | 1.398 ± 0.05
x1 = 0.1502 | 1.495 ± 0.053 | 1.387 ± 0.05
x1 = 0.2141 | 1.48 ± 0.053 | 1.376 ± 0.049
x1 = 0.2852 | 1.461 ± 0.052 | 1.361 ± 0.049
x1 = 0.3521 | 1.442 ± 0.051 | 1.346 ± 0.048
x1 = 0.4201 | 1.42 ± 0.051 | 1.328 ± 0.048
x1 = 0.5026 | 1.392 ± 0.05 | 1.305 ± 0.047
x1 = 0.5892 | 1.362 ± 0.049 | 1.279 ± 0.046
x1 = 0.6625 | 1.335 ± 0.048 | 1.254 ± 0.045
x1 = 0.7211 | 1.313 ± 0.047 | 1.234 ± 0.045
x1 = 0.7908 | 1.284 ± 0.046 | 1.207 ± 0.044
x1 = 0.8625 | 1.253 ± 0.045 | 1.177 ± 0.043
x1 = 0.9204 | 1.222 ± 0.044 | 1.151 ± 0.042

CC(C)(C)Br + CC(C)(C)O
viscosity [mPa·s], 101.3 kPa
Details | x1 = 0.1003 | x1 = 0.2034 | x1 = 0.3015 | x1 = 0.4024 | x1 = 0.5028 | x1 = 0.6049 | x1 = 0.705 | x1 = 0.7981 | x1 = 0.8958
298.15 K | 2.648 ± 0.023 | 1.858 ± 0.017 | 1.458 ± 0.013 | 1.208 ± 0.011 | 1.026 ± 0.0098 | 0.9136 ± 0.0092 | 0.8363 ± 0.0088 | 0.7868 ± 0.0087 | 0.7483 ± 0.0087
313.15 K | 1.504 ± 0.018 | 1.165 ± 0.012 | 0.9832 ± 0.0098 | 0.8491 ± 0.0085 | 0.7568 ± 0.0076 | 0.6855 ± 0.0072 | 0.6408 ± 0.007 | 0.6119 ± 0.007 | 0.595 ± 0.0071

CCCCN(CCCC)CCCC + CC(C)(C)O
viscosity [mPa·s], 101 kPa
Details | x2 = 0.0998 | x2 = 0.2 | x2 = 0.3 | x2 = 0.4 | x2 = 0.5001 | x2 = 0.5999 | x2 = 0.7 | x2 = 0.8 | x2 = 0.9006 | x2 = 0.9503
303.15 K | 1.189 ± 0.015 | 1.202 ± 0.015 | 1.267 ± 0.016 | 1.324 ± 0.016 | 1.394 ± 0.017 | 1.499 ± 0.018 | 1.637 ± 0.02 | 1.878 ± 0.023 | 2.323 ± 0.029 | 2.732 ± 0.033
308.15 K | 1.083 ± 0.014 | 1.108 ± 0.014 | 1.145 ± 0.014 | 1.189 ± 0.015 | 1.242 ± 0.015 | 1.323 ± 0.016 | 1.43 ± 0.017 | 1.598 ± 0.019 | 1.91 ± 0.023 | 2.204 ± 0.027
313.15 K | 0.9915 ± 0.012 | 1.009 ± 0.013 | 1.037 ± 0.013 | 1.072 ± 0.013 | 1.112 ± 0.014 | 1.172 ± 0.014 | 1.251 ± 0.015 | 1.376 ± 0.017 | 1.599 ± 0.019 | 1.809 ± 0.022
318.15 K | 0.9113 ± 0.011 | 0.9236 ± 0.011 | 0.9451 ± 0.012 | 0.9707 ± 0.012 | 1.003 ± 0.012 | 1.048 ± 0.013 | 1.104 ± 0.013 | 1.197 ± 0.015 | 1.356 ± 0.016 | 1.514 ± 0.018
323.15 K | 0.8405 ± 0.011 | 0.8479 ± 0.011 | 0.8641 ± 0.011 | 0.8824 ± 0.011 | 0.908 ± 0.011 | 0.9401 ± 0.011 | 0.9817 ± 0.012 | 1.051 ± 0.013 | 1.166 ± 0.014 | 1.288 ± 0.016

CN(C)c1ccccc1 + CC(C)(C)O
303.15 K, 101 kPa
Details | viscosity [mPa·s]
x1 = 0.0534 | 3.315 ± 0.037
x1 = 0.1054 | 3.242 ± 0.035
x1 = 0.1689 | 3.141 ± 0.033
x1 = 0.2256 | 3.041 ± 0.03
x1 = 0.2958 | 2.907 ± 0.028
x1 = 0.3612 | 2.775 ± 0.025
x1 = 0.4502 | 2.587 ± 0.022
x1 = 0.5246 | 2.423 ± 0.02
x1 = 0.6589 | 2.112 ± 0.017
x1 = 0.7421 | 1.908 ± 0.015
x1 = 0.8046 | 1.747 ± 0.014
x1 = 0.8645 | 1.584 ± 0.013
x1 = 0.9472 | 1.34 ± 0.013

CN(C)c1ccccc1 + CC(C)=O
viscosity [mPa·s], 101 kPa
Details | 303.15 K | 308.15 K
x1 = 0.0782 | 0.409 ± 0.019 | 0.374 ± 0.018
x1 = 0.1356 | 0.494 ± 0.021 | 0.448 ± 0.02
x1 = 0.1965 | 0.584 ± 0.024 | 0.535 ± 0.022
x1 = 0.2551 | 0.668 ± 0.026 | 0.614 ± 0.025
x1 = 0.3205 | 0.757 ± 0.029 | 0.698 ± 0.027
x1 = 0.3921 | 0.844 ± 0.032 | 0.781 ± 0.03
x1 = 0.4724 | 0.925 ± 0.035 | 0.857 ± 0.032
x1 = 0.5558 | 0.992 ± 0.037 | 0.921 ± 0.035
x1 = 0.6214 | 1.033 ± 0.038 | 0.958 ± 0.036
x1 = 0.7086 | 1.072 ± 0.039 | 0.995 ± 0.037
x1 = 0.7784 | 1.095 ± 0.04 | 1.018 ± 0.038
x1 = 0.8565 | 1.118 ± 0.041 | 1.046 ± 0.039
x1 = 0.9221 | 1.138 ± 0.041 | 1.069 ± 0.039

CCCCN(CCCC)CCCC + CC(C)CC(C)(C)C
viscosity [mPa·s], 101 kPa
Details | x1 = 0.1106 | x1 = 0.2474 | x1 = 0.3947 | x1 = 0.4958 | x1 = 0.5982 | x1 = 0.793 | x1 = 0.8938
303.15 K | 0.505 ± 0.0057 | 0.5839 ± 0.0061 | 0.6783 ± 0.0066 | 0.7486 ± 0.007 | 0.8256 ± 0.0075 | 0.9844 ± 0.0085 | 1.072 ± 0.009
313.15 K | 0.4465 ± 0.0054 | 0.5109 ± 0.0057 | 0.5884 ± 0.0062 | 0.6462 ± 0.0065 | 0.7101 ± 0.0068 | 0.8423 ± 0.0076 | 0.9171 ± 0.008

CC(=O)CC(C)=O + CC(C)CCO
298.15 K, 101 kPa
Details | viscosity [mPa·s]
x1 = 0.1 | 2.622 ± 0.023
x1 = 0.2 | 1.997 ± 0.02
x1 = 0.3 | 1.558 ± 0.018
x1 = 0.4 | 1.26 ± 0.017
x1 = 0.5 | 1.063 ± 0.016
x1 = 0.6 | 0.933 ± 0.016
x1 = 0.7 | 0.844 ± 0.015
x1 = 0.8 | 0.778 ± 0.015
x1 = 0.9 | 0.729 ± 0.015

CC(C)(C)Br + CC(C)CO
viscosity [mPa·s], 101.3 kPa
Details | x1 = 0.1028 | x1 = 0.2047 | x1 = 0.3013 | x1 = 0.4041 | x1 = 0.5068 | x1 = 0.6029 | x1 = 0.7033 | x1 = 0.8031 | x1 = 0.905
298.15 K | 2.582 ± 0.02 | 2.021 ± 0.017 | 1.64 ± 0.014 | 1.351 ± 0.012 | 1.138 ± 0.011 | 0.9943 ± 0.0099 | 0.8866 ± 0.0093 | 0.8146 ± 0.009 | 0.757 ± 0.0088
313.15 K | 1.718 ± 0.016 | 1.405 ± 0.013 | 1.168 ± 0.011 | 0.9825 ± 0.0094 | 0.8486 ± 0.0084 | 0.7553 ± 0.0078 | 0.688 ± 0.0074 | 0.6382 ± 0.0073 | 0.6044 ± 0.0072

CN(C)c1ccccc1 + CC(C)CO
303.15 K, 101 kPa
Details | viscosity [mPa·s]
x1 = 0.0545 | 2.804 ± 0.019
x1 = 0.1056 | 2.755 ± 0.019
x1 = 0.1875 | 2.663 ± 0.018
x1 = 0.2546 | 2.576 ± 0.018
x1 = 0.3526 | 2.434 ± 0.017
x1 = 0.4278 | 2.316 ± 0.016
x1 = 0.5047 | 2.189 ± 0.016
x1 = 0.5869 | 2.044 ± 0.015
x1 = 0.6514 | 1.926 ± 0.015
x1 = 0.7348 | 1.767 ± 0.014
x1 = 0.8025 | 1.628 ± 0.013
x1 = 0.8621 | 1.501 ± 0.013
x1 = 0.9285 | 1.345 ± 0.012

CN(C)c1ccccc1 + CC(C)O
303.15 K, 101 kPa
Details | viscosity [mPa·s]
x1 = 0.0564 | 1.727 ± 0.016
x1 = 0.1136 | 1.655 ± 0.015
x1 = 0.1989 | 1.56 ± 0.015
x1 = 0.2689 | 1.492 ± 0.014
x1 = 0.3245 | 1.439 ± 0.014
x1 = 0.3767 | 1.401 ± 0.013
x1 = 0.4258 | 1.369 ± 0.013
x1 = 0.4878 | 1.33 ± 0.013
x1 = 0.5655 | 1.288 ± 0.013
x1 = 0.6305 | 1.259 ± 0.012
x1 = 0.7385 | 1.22 ± 0.012
x1 = 0.8187 | 1.199 ± 0.012
x1 = 0.9243 | 1.18 ± 0.012
